Data on 20 molecules can be found in patent EP2385948B1, “FUSED THIAZOLO AND OXAZOLO PYRIMIDINONES” (Torrent Pharmaceuticals Limited, priority 2009, dated 2011).

Where a name gives a salt, the structure may show the parent alone.

One data set deals with adrenomedullin mRNA. Briefly: In vitro induction of adrenomedullin mRNA (real-time PCR, normalized to 18S rRNA). In kind it is cell-based. As to conditions: Hep3B cell line, relative to vehicle control; for fold induction at 200 µM: Homo sapiens, Hep3B, 6 h. The protocol:
Hep3B cell line (ATCC HB8064) was employed. […] At the end of 6 hours, cells were lysed and total RNA was isolated. Expression of adrenomedullin mRNA along-with expression of 18S rRNA was monitored by real-time PCR. Adrenomedullin mRNA expression was normalized relative to the expression of 18S rRNA. The results were expressed as fold induction of adrenomedullin mRNA relative to vehicle treated control.

The next data set concerns erythropoietin. Briefly: In vitro erythropoietin induction (ELISA of cell culture supernatant). As to conditions: for fold induction at 200 µM: read-out: EPO fold induction, Hep3B cell line, 200 uM, 16 hours, relative to vehicle control; for EPO fold induction: Hep3B cell line, 50 uM, 16 hours, relative to vehicle control. On the technique in general: ELISA stands for enzyme-linked immunosorbent assay.

The test system of the next data set is VEGF. As to the kind of experiment: In vitro induction of VEGF (ELISA of cell culture supernatant). In kind it is cell-based. The settings on record: Homo sapiens, Hep3B cell line, 16 hours, relative to vehicle control. Here is the method: Hep3B cell line (ATCC HB8064) was employed. […] Supernatant obtained was analyzed for VEGF by ELISA (R&D systems, USA). […]

Protocol for erythropoietin: Hep3B cell line (ATCC HB8064) was employed. Induction of erythropoietin was carried out for the indicated dose of compounds for 16 hours duration. At the end of 16 hours, cell culture medium was collected and centrifuged to remove any debris. Supernatant obtained was analyzed for erythropoietin by ELISA (R&D systems, USA). The results were expressed as fold induction as compared to vehicle control.

Consider `CC(NC(=O)c1c(O)nc2sc3c(n2c1=O)CCCCC3)C(=O)O` (stereo not shown) [Compound 32, 2-[(2-Hydroxy-4-oxo-6,7,8,9-tetrahydro-4H,5H-10-thia-1,4a-diaza-benzo[a]azulene-3-carbonyl)-amino]-propionic acid], for which the fold induction at 200 µM is 2 to 4 with adrenomedullin mRNA; 9 to 16 in the data set with erythropoietin (Homo sapiens, Hep3B, 16 h); 2 to 4 with VEGF.
`CC1(C)CCc2c(sc3nc(O)c(C(=O)NCC(=O)O)c(=O)n23)C1` [Compound 34, [(2-Hydroxy-7,7-dimethyl-4-oxo-5,6,7,8-tetrahydro-4H-9-thia-1,4a-diaza-fluorene-3-carbonyl)-amino]-acetic acid]: the fold induction at 200 µM with adrenomedullin mRNA was 5 to 8; in the data set with erythropoietin (Homo sapiens, Hep3B, 16 h), over 16; with VEGF, 2 to 4.
`O=C(O)CNC(=O)c1c(O)nc2sc3c(n2c1=O)CCCCC3` [Compound 82, [(2-Hydroxy-4-oxo-6,7,8,9-tetrahydro-4H,5H-10-thia-1,4a-diaza-benzo[a]azulene-3-carbonyl)-amino]-acetic acid, Disodium salt]: in the data set with adrenomedullin mRNA (200 uM, 6 hours, Disodium salt, 360 min), the “Adrenomedullin mRNA (fold induction)” value was “+++ (+++ indicates 5-8 fold)”. Further, in the data set with erythropoietin (Homo sapiens, Hep3B, 16 h, read-out: EPO fold induction, Hep3B cell line, 50 uM, 16 hours, relative to vehicle control), the fold induction at 50 µM fell in the range of 9 to 16.
On to `O=C(O)CNC(=O)c1c(O)nc2sc3c(n2c1=O)CCN(Cc1ccc(Cl)cc1)C3` [Compound 23, {[7-(4-Chloro-benzyl)-2-hydroxy-4-oxo-5,6,7,8-tetrahydro-4H-9-thia-1,4a,7-triaza-fluorene-3-carbonyl]-amino}-acetic acid], for which the fold induction at 200 µM was 2 to 4 with adrenomedullin mRNA; 9 to 16 in the data set with erythropoietin (Homo sapiens, Hep3B, 16 h); 2 to 4 with VEGF.
Turning to `O=C(O)CNC(=O)c1c(O)nc2sc3c(n2c1=O)CCN(C(=O)CC1CC1)C3` [Compound 27, {[7-(2-Cyclopropyl-acetyl)-2-hydroxy-4-oxo-5,6,7,8-tetrahydro-4H-9-thia-1,4a,7-triaza-fluorene-3-carbonyl]-amino}-acetic acid], the fold induction at 200 µM was over 8 in the data set on adrenomedullin mRNA; 9 to 16 in the data set on erythropoietin (Homo sapiens, Hep3B, 16 h); 2 to 4 in the data set with VEGF.
Take `O=C(O)CNC(=O)c1c(O)nc2sc3c(n2c1=O)CCN(Cc1ccc(Cl)c(Cl)c1)C3` [Compound 49, {[7-(3,4-Dichloro-benzyl)-2-hydroxy-4-oxo-5,6,7,8-tetrahydro-4H-9-thia-1,4a,7-triaza-fluorene-3-carbonyl]-amino}-acetic acid]: the fold induction at 200 µM is 5 to 8 in the data set with adrenomedullin mRNA and 5 to 8 in the data set with erythropoietin (Homo sapiens, Hep3B, 16 h).
In the case of `O=C(O)CNC(=O)c1c(O)nc2sc3c(n2c1=O)CCN(Cc1ccc(C(F)(F)F)cc1)C3` [Compound 52, {[2-Hydroxy-4-oxo-7-(4-trifluoromethyl-benzyl)-5,6,7,8-tetrahydro-4H-9-thia-1,4a,7-triaza-fluorene-3-carbonyl]-amino}-acetic acid], the fold induction at 200 µM fell in the range of 5 to 8 in the data set on adrenomedullin mRNA and 5 to 8 in the data set on erythropoietin (Homo sapiens, Hep3B, 16 h).
Take `O=C([O-])CNC(=O)c1c(O)nc2sc3c(n2c1=O)CCCC3.[Na+]`: the EPO fold induction entry with erythropoietin was “++ (++ indicates 2-4 fold)”.
With `O=C(O)CNC(=O)c1c(O)nc2sc3c(n2c1=O)CCN(C(=O)Nc1ccccc1)C3` [Compound 8, [(2-Hydroxy-4-oxo-7-phenylcarbamoyl-5,6,7,8-tetrahydro-4H-9-thia-1,4a,7-triaza-fluorene-3-carbonyl)-amino]-acetic acid], the fold induction at 200 µM in the data set on erythropoietin (Homo sapiens, Hep3B, 16 h) is 2 to 4.
Regarding `O=C(O)CNC(=O)c1c(O)nc2sc3c(n2c1=O)CCCCCC3` [Compound 38, [(2-Hydroxy-4-oxo-5,6,7,8,9,10-hexahydro-4H-11-thia-1,4a-diaza-cycloocta[a]indene-3-carbonyl)-amino]-acetic acid], in the data set with erythropoietin (Homo sapiens, Hep3B, 16 h), the fold induction at 200 µM lay within 9 to 16.
The same measure, in the same setting: the figure for `O=C(O)CNC(=O)c1c(O)nc2sc3c(n2c1=O)CCN(C(=S)Nc1ccc(F)cc1)C3` [Compound 24, {[7-(4-Fluoro-phenylthiocarbamoyl)-2-hydroxy-4-oxo-5,6,7,8-tetrahydro-4H-9-thia-1,4a,7-triaza-fluorene-3-carbonyl]-amino}-acetic acid] is 5 to 8.
In the case of `O=C(O)CNC(=O)c1c(O)nc2sc3c(n2c1=O)CCCC3` [Compound 1, [(2-Hydroxy-4-oxo-5,6,7,8-tetrahydro-4H-9-thia-1,4a-diaza-fluorene-3-carbonyl)-amino]-acetic acid], the EPO fold induction result in the data set on erythropoietin is given as “+++ (+++ indicates 5-8 fold)”.
As for `CC1CCc2c(sc3nc(O)c(C(=O)NCC(=O)O)c(=O)n23)C1` (stereo not shown) [Compound 58, [(2-Hydroxy-7-methyl-4-oxo-5,6,7,8-tetrahydro-4H-9-thia-1,4a-diaza-fluorene-3-carbonyl)-amino]-acetic acid], the fold induction at 200 µM in the data set with erythropoietin (Homo sapiens, Hep3B, 16 h) was 5 to 8.
Regarding `N#Cc1cccnc1N1CCc2c(sc3nc(O)c(C(=O)NCC(=O)O)c(=O)n23)C1` [Compound 36, {[7-(3-Cyano-pyridin-2-yl)-2-hydroxy-4-oxo-5,6,7,8-tetrahydro-4H-9-thia-1,4a,7-triaza-fluorene-3-carbonyl]-amino}-acetic acid], in the data set with erythropoietin (Homo sapiens, Hep3B, 16 h, read-out: EPO fold induction, Hep3B cell line, 12.5 uM, 16 hours, relative to vehicle control), the fold induction at 12.5 µM was under 2.
For `O=C(O)CNC(=O)c1c(O)nc2sc3c(n2c1=O)CCC1(CC1)C3` [Compound 70, N-[(2'-hydroxy-4'-oxo-6',9'-dihydro-4'H,7'H-spiro[cyclopropane-1,8'-pyrimido[2,1-b][1,3]benzothiazol]-3'-yl)carbonyl]glycine], in the data set with erythropoietin (Homo sapiens, Hep3B, 16 h), the fold induction at 200 µM fell in the range of 2 to 4.
The same measure, in the same setting: the figure for `O=C(O)CNC(=O)c1c(O)nc2sc3c(n2c1=O)CCN(C(=O)c1ccc(OC(F)(F)F)cc1)C3` [Compound 22, {[2-Hydroxy-4-oxo-7-(4-trifluoromethoxy-benzoyl)-5,6,7,8-tetrahydro-4H-9-thia-1,4a,7-triaza-fluorene-3-carbonyl]-amino}-acetic acid] is 5 to 8; for `O=C(O)CCNC(=O)c1c(O)nc2sc3c(n2c1=O)CCCCC3` [Compound 30, 3-[(2-Hydroxy-4-oxo-6,7,8,9-tetrahydro-4H,5H-10-thia-1,4a-diaza-benzo[a]azulene-3-carbonyl)-amino]-propionic acid] it is under 2; for `CC1(C)CCc2c(sc3nc(O)c(C(=O)NC(C)(C)C(=O)O)c(=O)n23)C1` [Compound 54, 2-[(2-Hydroxy-7,7-dimethyl-4-oxo-5,6,7,8-tetrahydro-4H-9-thia-1,4a-diaza-fluorene-3-carbonyl)-amino]-2-methyl-propionic acid] it is under 2.
On the same count and under the same terms, under `CC1(C)CCc2sc3nc(O)c(C(=O)NCC(=O)O)c(=O)n3c2C1` [Compound 60, [(2-Hydroxy-6,6-dimethyl-4-oxo-5,6,7,8-tetrahydro-4H-9-thia-1,4a-diaza-ftuorene-3-carbonyl)-amino]-acetic acid] stands 5 to 8; under `CC(C)(C)C(=O)N1CCc2c(sc3nc(O)c(C(=O)NCC(=O)O)c(=O)n23)C1` [Compound 20, {[7-(2,2-Dimethyl-propionyl)-2-hydroxy-4-oxo-5,6,7,8-tetrahydro-4H-9-thia-1,4a,7-triaza-fluorene-3-carbonyl]-amino}-acetic acid], 5 to 8.
